Measurements as given in patent US9079854B2 (priority 2007, dated 2015).

Key:
[1] = test system: tactile allodynia in a spinal nerve ligation neuropathic pain model; experiment: Lumbar 5/6 spinal nerve ligation neuropathic pain model, mechanical paw withdrawal threshold (von Frey); assay type: in vivo, rat; conditions: pretreatment with 5 mg/kg i.p.; rats
Source text: Neuropathic pain was induced following the methods of Kim and Chung. Kim S H, Chung J M. An experimental model for peripheral neuropathy produced by segmental spinal nerve ligation in the rat. Pain 1992; 50:355-63. Rats were anesthetized and placed prone under a microsurgical apparatus. A midline incision was made on the back, and the right paraspinal muscles were separated from the spinous processes at the L4-S2 levels. The L6 transverse process was carefully removed, and the L4/5 spinal nerves were identified. The L5 nerve was tightly ligated with a 6-0 silk suture. The right L6 spinal nerve was then located just caudal and medial to the sacroiliac junction and tightly ligated with a silk suture.
Two weeks later after spinal nerve ligation, Intrathecal catheters (PE-10 tubing) was inserted into the rats while they were anesthetized with isoflurane, as described by Yaksh and Rudy. Yaksh T L, Rudy T A. Chronic catheterization of the spinal subarachnoid space. Physiology & Behavior 1976; 17:1031-6. A midline incision was made on the back of the neck. The muscle was freed at the attachment to the skull exposing the cisternal membrane. The membrane was opened with a stab blade and an 8.5 cm polyethylene (PE-10) catheter was then inserted through the cisternal opening, and passed carefully and caudally into the intrathecal space at the L1-L3 spinal segments. The end of the catheter was tunneled through the subcutaneous space over the frontal bones, flushed with 10 μl saline, and then plugged with a short length of wire Animal testing was performed 5-7 days after intrathecal catheter placement.
To assess mechanical allodynia, the mechanical paw withdrawal threshold was measured with a series of von Frey hairs (range 0.4-15 g). Rats were placed in elevated Perspex enclosures (28 cm×15 cm×18 cm) with wire mesh bases and given 15-20 min to acclimatize to the testing environment. Rats will be allowed to acclimatize for 30 min in a clear plastic cage with a wire mesh bottom. The calibrated von Frey filament fibers were applied to the hindpaw briefly for 6 seconds to determine the paw withdrawal threshold before and after drug injection (intraperitoneally or intrathecally). A series of von Frey filaments with exponentially incremental stiffness (0.4, 0.7, 1.2, 2.0, 3.6, 5.5, 8.5 and 15 g) were used to measure the 50% threshold for hindpaw withdrawal in awake, unrestrained rats. Chaplan S R, Bach F W, Pogrel J W, Chung J M, Yaksh T L. Quantitative assessment of tactile allodynia in the rat paw. Journal of Neuroscience Methods 1994; 53:55-63. Brisk paw withdrawal from the pressure of a filament gently bent against the plantar paw was defined as a positive response, and absence of withdrawal within 6 s as a negative response. Filaments were touched to the hindpaw in sequential ascending or descending order until the threshold of response is crossed (allowing about 10 s between each increment of the von Frey filaments). Each time the threshold is crossed, the direction of stimulus presentation was reversed and the procedure will be resumed. Four responses were collected after the first threshold detection, and the 50% withdrawal thresholds were interpolated. In cases where response thresholds fell outside the range of detection, 15.00 and 0.25 g were, respectively, assigned for continuous negative or positive responses to the limit of stimuli.
All surgical procedures were performed under deep isoflurane anesthesia in 100% O2. The spinal nerve ligation (SNL) was performed as described previously. Kim, S. H., et al., An Experimental Model for Peripheral Neuropathy Produced by Segmental Spinal Nerve Ligation in the Rat, Pain, 1992, 50:355-63. Briefly, a midline incision above the lumbar spine exposed the left L6 transverse process. The process was then removed, the left L5 and L6 spinal nerves were isolated, and both nerves were tightly ligated with 6-0 silk. […]

[2] = biological target: T1, CB1 (Homo sapiens, UniProt P21554); experiment: CB1 antagonist functional assay; assay type: biochemical; conditions: data not shown
[3] = biological target: T2, human CB1 (hCB1) receptor (Homo sapiens, UniProt P21554); experiment: CB1 binding assay, competitive binding of [3H]CP 55940; conditions: at 1 μM; specific binding of [3H]-CP55940; CHO membranes
T2 construct: expressed in transfected cells; host or cells: CHO (Chinese hamster ovary) cells, membranes
Procedure, shortened: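 CHO cell membranes expressing human CB1 (25 μg protein) incubated 120 min at 37 °C with 0.5 nM [3H]CP 55940 in Tris-HCl pH 7.4 buffer with MgCl2, EDTA, 0.3% BSA. Filtration and scintillation counting; compound tested at 1 μM, given as percent inhibition of control specific binding.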

[4] = biological target: T3, hCB2 receptor (Homo sapiens, UniProt P34972); experiment: CB2 functional assay, [35S]GTP-γ-S binding; assay type: biochemical
T3 construct: purchased ES-111-MG; host or cells: CHO membrane extracts

[5] = biological target: T1, CB1; experiment: CB1 functional assay, [35S]GTP-γ-S binding; assay type: biochemical; design: purchased ES-110-MG; host or cells: CHO membrane extracts; conditions: read-out: [35S]GTP-γ-S hCB1 Emax (%); Table 9 footnote a: Efficacy determined at 3 μM; relative to CP 55,940
Experimental: A dose response curve was generated at eight concentrations in duplicate on CB1 and CB2 in light of reference agonists.
Membranes (CB1, ES-110-MG or CB2, ES-111-MG) are mixed with GDP (volume:volume) and incubated for at least […] on ice. In parallel, […] are mixed with the beads (volume:volume) just before starting the reaction. The following reagents are successively added in the wells of an Optiplate: 50 μl of ligand, 20 μl of the membranes:GDP mix, 10 μl of assay buffer for agonist testing and 20 μl of the […]: beads mix. The plates are covered with a topseal, shaken on an orbital shaker for 2 min, and then incubated between 30 to 60 min at room temperature. Then the plates are centrifuged for 10 min at 2000 rpm, incubated at room temperature between 1 to 4 hours and counted for 1 min with a PerkinElmer TopCount reader.
Functional activity for acyl hydrazone was evaluated using [^35S]GTP-γ-S assay in CHO membrane extracts expressing recombinant hCB1 receptor or hCB2 receptor. The assay relies on the binding of [^35S]GTP-γ-S, a radiolabeled nonhydrolyzable GTP analogue, to the G protein upon binding of an agonist of the G-protein-coupled receptor. In this system, agonists stimulate [^35S]GTP-γ-S binding whereas neutral antagonist have no effect and inverse agonists decrease [^35S]GTP-γ-S basal binding.
CB1 and CB2 assay data are presented as the mean of two determinations. […] For replicate determinations, the maximum variability tolerated in the test was of ±20% around the average of the replicates.

[6] = biological target: T4, human CB2 (hCB2) receptor (Homo sapiens, UniProt P34972); experiment: CB2 binding assay, competitive binding of [3H]WIN 55212-2; conditions: read-out: % inhibition hCB2 receptor, at 1 μM; specific binding of [3H]-WIN55212-2; CHO membranes
T4 construct: expressed in transfected cells; host or cells: CHO (Chinese hamster ovary) cells, membranes
Procedure, shortened: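 CHO cell membranes expressing hCB2 (15 μg protein) incubated 120 min at 37° C with 0.8 nM [3H]WIN 55212-2 in 50 mM HEPES/Tris pH 7.4, 5 mM MgCl2, 2.5 mM EGTA, 0.1% BSA; nonspecific binding with 10 μM WIN 55212-2. Filtration and scintillation counting; compounds at 1 μM, reported as % inhibition of control specific binding.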

T1 sequence (P21554 whole entry): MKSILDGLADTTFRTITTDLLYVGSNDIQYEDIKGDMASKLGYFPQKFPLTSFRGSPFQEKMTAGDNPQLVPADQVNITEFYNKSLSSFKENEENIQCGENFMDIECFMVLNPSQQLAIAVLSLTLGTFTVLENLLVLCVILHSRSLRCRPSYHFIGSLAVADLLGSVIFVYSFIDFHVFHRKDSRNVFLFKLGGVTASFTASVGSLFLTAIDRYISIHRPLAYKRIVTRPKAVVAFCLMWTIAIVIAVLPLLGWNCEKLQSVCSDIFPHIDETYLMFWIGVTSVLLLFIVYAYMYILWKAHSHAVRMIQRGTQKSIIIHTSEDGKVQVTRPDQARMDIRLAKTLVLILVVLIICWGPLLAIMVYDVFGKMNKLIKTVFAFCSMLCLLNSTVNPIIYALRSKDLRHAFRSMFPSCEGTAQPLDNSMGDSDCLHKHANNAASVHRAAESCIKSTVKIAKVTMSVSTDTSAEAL
T3 sequence (P34972 whole entry): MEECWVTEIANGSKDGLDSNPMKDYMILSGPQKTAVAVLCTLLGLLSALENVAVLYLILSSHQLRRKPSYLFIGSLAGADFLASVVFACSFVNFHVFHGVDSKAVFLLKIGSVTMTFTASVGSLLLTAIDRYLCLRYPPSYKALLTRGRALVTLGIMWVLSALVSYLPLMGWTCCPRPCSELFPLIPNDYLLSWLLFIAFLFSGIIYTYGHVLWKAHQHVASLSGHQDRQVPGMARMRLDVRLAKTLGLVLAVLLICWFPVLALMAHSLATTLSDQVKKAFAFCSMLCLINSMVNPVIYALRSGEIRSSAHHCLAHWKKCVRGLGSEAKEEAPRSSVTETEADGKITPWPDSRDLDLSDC
T2 sequence (P21554 whole entry): as the sequence (P21554 whole entry) above
T4 sequence (P34972 whole entry): as the sequence (P34972 whole entry) above

Compound	effect of pretreatment on the anti-allodynic effect of Example 6 [1]	antagonist activity in a CB1 antagonist functional assay [2]	inhibition at 1 µM [3] [%]	EC50 ([4]; Table 9, mean of two determinations, read-out: [35S]GTP-γ-S hCB2 EC50 (nM ± SEM)) [nM]	Emax ([4]; Table 9, relative to the efficacy of CP 55,940) [%]	Emax at 3 µM [5] [%]	inhibition at 1 µM [6] [%]	Emax at 3 µM ([4]; read-out: [35S]GTP-γ-S hCB2 Emax (%), Table 9 footnote a: Efficacy determined at 3 μM, relative to CP 55,940) [%]
COc1ccc(C(=O)c2c(C)n(CCN3CCOCC3)c3cc(I)ccc23)cc1 [AM630, reference compound]	antagonized the effects of compound of Example 6	–	–	–	–	–	–	–
CCCCCCN1C(=O)/C(=N\NC(=O)c2cccc3ccccc23)c2ccccc21 [Example 19, N′-[(3Z)-1-hexyl-2-oxo-1,2-dihydro-3H-indol-3-ylidene]-1-naphthohydrazide]	–	failed to be antagonist	> 80	202.2 ± 2	30.5	12.9	69.8 ± 4	–
CCCCCCN1C(=O)/C(=N\NC(=O)C23CC4CC(CC(C4)C2)C3)c2ccccc21 [Example 20, N′-[(3Z)-1-hexyl-2-oxo-1,2-dihydro-3H-indol-3-ylidene]adamantane-1-carbohydrazide]	–	failed to be antagonist	> 85	–	–	34.6	> 85	32.1
